Data as given in the supplement of paper PMC10307832.

Tests used:
Test in all cases: relative viability (nuclei count vs DMSO), 5 days (fraction); higher = more cells survive
ABC-1 = test system: ABC-1
Method in brief: (§1)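 Cells from lung cancer lines were seeded into 1536-well plates and, one day later, dosed by pin tool. Treatments were either a single drug or a fixed dose of an anchor drug with five library-drug doses (not always all listed) in √10 steps. After 5 days, nuclei were stained in a one-step fixation (final 0.05% Triton X-100, 1% formaldehyde, 1 ug/ml Hoechst) and counted on 4× images, and relative viability is the treated-to-vehicle nuclei ratio, as the median of duplicate plates.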

CAL-12T = test system: CAL-12T
Method in brief: as §1

COR-L 105 = test system: COR-L 105
Method in brief: as §1

EKVX = test system: EKVX
Method in brief: as §1

EPLC-272H = test system: EPLC-272H
Method in brief: as §1

H3255 = test system: H3255
Method in brief: as §1

HCC-366 = test system: HCC-366
Method in brief: as §1

HCC-827 = test system: HCC-827
Method in brief: as §1

NCI-H1355 = test system: NCI-H1355
Method in brief: as §1

NCI-H1792 = test system: NCI-H1792
Method in brief: as §1

NCI-H1975 = test system: NCI-H1975
Method in brief: as §1

NCI-H1993 = test system: NCI-H1993
Method in brief: as §1

NCI-H2009 = test system: NCI-H2009
Method in brief: as §1

NCI-H2085 = test system: NCI-H2085
Method in brief: as §1

NCI-H2087 = test system: NCI-H2087
Method in brief: as §1

NCI-H2228 = test system: NCI-H2228
Method in brief: as §1

NCI-H322M = test system: NCI-H322M
Method in brief: as §1

NCI-H441 = test system: NCI-H441
Method in brief: as §1

NCI-H460 = test system: NCI-H460
Method in brief: as §1

SK-MES-1 = test system: SK-MES-1
Method in brief: as §1

Cc1cn(-c2cc(NC(=O)c3ccc(C)c(Nc4nccc(-c5cccnc5)n4)c3)cc(C(F)(F)F)c2)cn1 [Nilotinib] + C[C@]1(O)C[C@@H](c2nc(-c3ccc4ccc(-c5ccccc5)nc4c3)c3c(N)nccn32)C1 [Linsitinib] (partner 1 µM)
relative viability (ABC-1; first compound 0.001 µM): 0.985 | relative viability (ABC-1; first compound 0.003162 µM): 0.862 | relative viability (ABC-1; first compound 0.01 µM): 0.724 | relative viability (ABC-1; first compound 0.03162 µM): 0.683 | relative viability (ABC-1; first compound 0.1 µM): 0.554 | relative viability (CAL-12T; first compound 0.001 µM): 0.75 | relative viability (CAL-12T; first compound 0.003162 µM): 0.771 | relative viability (CAL-12T; first compound 0.01 µM): 0.946 | relative viability (CAL-12T; first compound 0.03162 µM): 0.714 | relative viability (CAL-12T; first compound 0.1 µM): 0.565 | relative viability (COR-L 105; first compound 0.001 µM): 0.913 | relative viability (COR-L 105; first compound 0.01 µM): 1 | relative viability (COR-L 105; first compound 0.03162 µM): 0.849 | relative viability (COR-L 105; first compound 0.1 µM): 0.823 | relative viability (EKVX; first compound 0.001 µM): 0.866 | relative viability (EKVX; first compound 0.003162 µM): 1.26 | relative viability (EKVX; first compound 0.01 µM): 1.62 | relative viability (EKVX; first compound 0.03162 µM): 0.955 | relative viability (EKVX; first compound 0.1 µM): 1.09 | relative viability (EPLC-272H; first compound 0.001 µM): 1.38 | relative viability (EPLC-272H; first compound 0.003162 µM): 1.34 | relative viability (EPLC-272H; first compound 0.01 µM): 1.42 | relative viability (EPLC-272H; first compound 0.03162 µM): 1.08 | relative viability (EPLC-272H; first compound 0.1 µM): 1.18 | relative viability (H3255; first compound 0.001 µM): 0.817 | relative viability (H3255; first compound 0.003162 µM): 1.06 | relative viability (H3255; first compound 0.01 µM): 1.2 | relative viability (H3255; first compound 0.03162 µM): 0.875 | relative viability (H3255; first compound 0.1 µM): 0.952 | relative viability (HCC-366; first compound 0.001 µM): 0.577 | relative viability (HCC-366; first compound 0.003162 µM): 1.33 | relative viability (HCC-366; first compound 0.01 µM): 0.857 | relative viability (HCC-366; first compound 0.03162 µM): 0.64 | relative viability (HCC-366; first compound 0.1 µM): 0.472 | relative viability (HCC-827; first compound 0.001 µM): 0.944 | relative viability (HCC-827; first compound 0.003162 µM): 1.08 | relative viability (HCC-827; first compound 0.01 µM): 1.08 | relative viability (HCC-827; first compound 0.1 µM): 0.941 | relative viability (NCI-H1355; first compound 0.001 µM): 0.815 | relative viability (NCI-H1355; first compound 0.003162 µM): 1.11 | relative viability (NCI-H1355; first compound 0.01 µM): 1.16 | relative viability (NCI-H1355; first compound 0.03162 µM): 0.836 | relative viability (NCI-H1355; first compound 0.1 µM): 0.934 | relative viability (NCI-H1792; first compound 0.001 µM): 0.334 | relative viability (NCI-H1792; first compound 0.01 µM): 0.583 | relative viability (NCI-H1792; first compound 0.1 µM): 0.565 | relative viability (NCI-H1975; first compound 0.001 µM): 0.913 | relative viability (NCI-H1975; first compound 0.003162 µM): 1.23 | relative viability (NCI-H1975; first compound 0.01 µM): 1.03 | relative viability (NCI-H1975; first compound 0.03162 µM): 0.688 | relative viability (NCI-H1975; first compound 0.1 µM): 0.822 | relative viability (NCI-H1993; first compound 0.001 µM): 0.808 | relative viability (NCI-H1993; first compound 0.003162 µM): 0.74 | relative viability (NCI-H1993; first compound 0.01 µM): 0.702 | relative viability (NCI-H1993; first compound 0.03162 µM): 0.804 | relative viability (NCI-H1993; first compound 0.1 µM): 0.769 | relative viability (NCI-H2009; first compound 0.001 µM): 1.07 | relative viability (NCI-H2009; first compound 0.003162 µM): 1.28 | relative viability (NCI-H2009; first compound 0.01 µM): 1.22 | relative viability (NCI-H2009; first compound 0.03162 µM): 1.18 | relative viability (NCI-H2009; first compound 0.1 µM): 1.15 | relative viability (NCI-H2085; first compound 0.001 µM): 0.864 | relative viability (NCI-H2085; first compound 0.003162 µM): 1.08 | relative viability (NCI-H2085; first compound 0.01 µM): 1.15 | relative viability (NCI-H2085; first compound 0.03162 µM): 0.888 | relative viability (NCI-H2085; first compound 0.1 µM): 0.884 | relative viability (NCI-H2087; first compound 0.001 µM): 0.855 | relative viability (NCI-H2087; first compound 0.003162 µM): 0.949 | relative viability (NCI-H2087; first compound 0.01 µM): 1.08 | relative viability (NCI-H2087; first compound 0.03162 µM): 0.852 | relative viability (NCI-H2087; first compound 0.1 µM): 0.66 | relative viability (NCI-H2228; first compound 0.001 µM): 0.578 | relative viability (NCI-H2228; first compound 0.003162 µM): 0.862 | relative viability (NCI-H2228; first compound 0.01 µM): 0.603 | relative viability (NCI-H2228; first compound 0.03162 µM): 0.657 | relative viability (NCI-H2228; first compound 0.1 µM): 0.623 | relative viability (NCI-H322M; first compound 0.001 µM): 0.747 | relative viability (NCI-H322M; first compound 0.003162 µM): 1.03 | relative viability (NCI-H322M; first compound 0.03162 µM): 0.76 | relative viability (NCI-H322M; first compound 0.1 µM): 0.932 | relative viability (NCI-H441; first compound 0.001 µM): 0.503 | relative viability (NCI-H441; first compound 0.003162 µM): 0.588 | relative viability (NCI-H441; first compound 0.01 µM): 0.482 | relative viability (NCI-H441; first compound 0.1 µM): 0.512 | relative viability (NCI-H460; first compound 0.001 µM): 0.586 | relative viability (NCI-H460; first compound 0.003162 µM): 1.1 | relative viability (NCI-H460; first compound 0.01 µM): 1.75 | relative viability (NCI-H460; first compound 0.03162 µM): 0.319 | relative viability (NCI-H460; first compound 0.1 µM): 0.507 | relative viability (SK-MES-1; first compound 0.003162 µM): 1.29 | relative viability (SK-MES-1; first compound 0.01 µM): 1.16 | relative viability (SK-MES-1; first compound 0.03162 µM): 1.12
